Reference: PMC10527105, “Chirality Matters: Fine-Tuning of Novel Monoamine Reuptake Inhibitors Selectivity through Manipulation of Stereochemistry” (Biomolecules, 2023)

Test system: Schaffer collateral (SC)-CA1 synapses
Experiment: Ex vivo electrophysiology in hippocampal slices of aged rats
Parameters: species or system Sprague–Dawley rats
Protocol: Animals. Male Sprague–Dawley rats (22–23 months old) were bred and kept in the Core Unit of Biomedical Research, Division of Laboratory Animal Science and Genetics, Medical University of Vienna. Rats were housed in groups of two in standard Makrolon cages filled with autoclaved woodchips (temperature: 22 ± 2 °C; humidity: 55 ± 5%; 12 h artificial light/12 h dark cycle: light on at 7:00 am). Tap water and food were provided ad libitum. The study was carried out according to the guidelines of the ethics committee at the Medical University of Vienna and was approved by the Federal Ministry of Education, Science, and Culture, Austria (BMBWF-66.009/235/V/3b/2018).
Hippocampal Slices Preparation. Acutely dissected hippocampal slices obtained from rat singles administered with vehicle or 10 mg/kg for 7h (1 h prior to brain extraction) were prepared as previously described, with slight modifications. Briefly, rats were anesthetized by 50 s isoflurane inhalation exposure, and (upon the absence of corneal reflexes), animals were decapitated using a high-precision, hardened, sharp-blade rodent guillotine (DCAP-M, World Precision Instruments, Inc., Sarasota, FL, USA). […]
Extracellular recording. […] An AxoClamp-2B amplifier, Digidata-1440 interface (Axon Instruments, Molecular Devices, Berkshire, UK), and pClamp-11 software (Molecular Devices, Berkshire, UK) were used for data acquisition and analysis. fEPSPs were recorded at 0.033 Hz. […]
Hippocampal synaptic potentiation was induced by delivering 4 trains of 20 pulses at 100 Hz (200 μs/pulse) with a 500 ms inter-train interval, a variant of the different forms of HFS protocol known to induce both post-tetanic potentiation (PTP) and long-term potentiation (LTP) in hippocampal CA3-CA1 hippocampal synapses in young rodents. Synaptic plasticity was assessed by quantifying the time course of changes in fEPSP slope (decaying phase) after applying the plasticity-inducing protocol, normalized to the average of all fEPSP slopes recorded during the preceding baseline recording period. […]

## [O-][S@+](Cc1cccs1)[C@H](c1ccccc1)c1cccc(Br)c1 [Compound 8h, (R,R)-2-((((3-bromophenyl)(phenyl)methyl)sulfinyl)methyl)thiophene]
Acute 10 mg/kg, aged rats (22–23 months), hippocampal slices
  basal synaptic transmission: fEPSP slopes (I/O curves) vs vehicle: significantly enhanced
Acute treatment, aged rats, for at least 40 min after HFS
  long-term potentiation (LTP) after HFS vs vehicle: significantly increased and maintained LTP
Acute treatment, aged rats, right after HFS, Sidak post hoc p < 0.0001
  early post-tetanic potentiation (PTP) responses vs vehicle: statistically significant (p < 0.0001) enhancement
